According to patent publication US20230036051A1, “C[…] STABILITY” (priority 2021, published 2023):

Assay: Storage stability of THC in ground cannabis flower, non-accelerated storage conditions
Assay type: physicochemical
Conditions: loss of THC content; positive control, amount not given
Method: After analyzing initial cannabinoid content, an amount of terpene blend 1 was added to 3.5 (±0.05) g of ground flower (1, 2, or 3%, by weight of the dried cannabis) was applied to the product and stored in an air-tight container protected from light. All experiments were performed in triplicate. The testing conditions included: (1) Non-Accelerated Storage Conditions without exogenous terpenes “Control”; (2) Accelerated Conditions (+3.0% by weight hydrogen peroxide, initially, and refreshed each week) without exogenous terpenes, and (3) Accelerated Conditions with exogenous terpenes “H2O2+Terpene” (Blend 1). (FIG. 2). Butylated hydroxytoluene (BHT), a preservative used in food, known to prevent radical-mediated oxidation was employed as a positive control. Each container was opened twice/week and stirred, simulating usual conditions for access of medicinal cannabis. The cannabinoid content was analyzed after 24 and 81 days of storage.
The stabilizing effect was observed after 81 days (TABLE 2) and also between days 24 and 81 (TABLE 3).

## Cc1cc(C(C)(C)C)c(O)c(C(C)(C)C)c1 [BHT, Butylated hydroxytoluene]
  Relative % Loss 0 to 81 Days: 7.90%
  Relative % Loss 24 to 81 Days: 18.65%
